In patent US5413915A (priority 1991, dated 1995):
Marks after values point to notes of the source that are not given here.

What was measured:
[1] = tested on: Salmonella typhimurium; conditions: cited from earlier work
[2] = in vivo; cited from earlier work
[3] = tested on: rat liver microsomes; assay type: biochemical; design: unit not given here
[4] = in vivo; cited from earlier work; remark: listed apart in the source

Compound | Mutagenicity [1] | Teratogen Activity [2] | Detector Response, threshold dose [3] | Tumorigen Activity [4] | Tumorigen Activity, assignment based on NCI/NTP carcinogenesis bioassay results [4]
ClCCCl [1,2-Dichloroethane] | + | - | 20 | + | 
C1COCCO1 [1,4-Dioxane] | - | - | 10 |  | +
Oc1ccccc1Cl [2-Chlorophenol] | - | - | < 1 | + | 
Oc1ccc2ccccc2c1 [2-Naphthol] |  | - | 20 | - | 
NC(N)=S [2-Thiourea] | + | + | 7 | + | 
Oc1cccc(Cl)c1 [3-Chlorophenol] | - | - | < 1 | + | 
Oc1ccc(Cl)cc1 [4-Chlorophenol] | + | - | < 1 | + | 
Oc1cccc2cccnc12 [8-Hydroxyquinoline] | + | - | 0.3 | + | 
CC(C)=O [Acetone] | - | - | > 50 | - | 
C=CC(N)=O [Acrylamide] |  | - | 0.2 | + | 
C=CC#N [Acrylonitrile] | + | + | 20 | + | 
O=C1c2ccccc2C(=O)c2ccccc21 [Anthraquinone] | - | - | 1-20 | - | 
CCNc1nc(Cl)nc(NC(C)C)n1 [Atrazine (ind.), Atrazine] | - | - | 0.05 | +^e | 
Cc1cc(C(C)(C)C)c(O)c(C(C)(C)C)c1 [BHT] | - | - | 200 | +/- | 
[Ba+2] [Barium(II)] | - | - | 20-100 | - | 
[Ca+2] [Calcium(II)] | - | - | 10 | +/- | 
CCOP(=S)(OCC)Oc1nc(Cl)c(Cl)cc1Cl [Chlorpyrifos (ind.), Chlorpyrifos] | - | + | 0.01 | - | 
N#CN [Cyanamid] | + | - | 30 | +^e | 
C[C@H](CCC(=O)O)[C@H]1CC[C@H]2[C@@H]3CC[C@@H]4C[C@H](O)CC[C@]4(C)[C@H]3C[C@H](O)[C@]12C [Deoxycholate] | - | + | 0.5 | - | 
CCOP(=S)(OCC)Oc1cc(C)nc(C(C)C)n1 [Diazinon (ind.), Diazinon] | - | + | 1-100 | - | 
CCN(CC)C(=S)S [Diethyldithiocarbamic acid] | - | + | 0.2 | +^t | -

Compound | Mutagenicity [1] | Teratogen Activity [2] | Detector Response, threshold dose [3] | Tumorigen Activity [4] | Tumorigen Activity, assignment based on NCI/NTP carcinogenesis bioassay results [4]
CCN(CC)N=O [Diethylnitrosamine] | + | + | 0.1-1 | + | 
c1ccc(Nc2ccccc2)cc1 [Diphenylamine] | - | + | 100 | - | 
[Dy+3] [Dysprosium(III)] | - | - | 5 | - | 
O=S1OCC2C(CO1)C1(Cl)C(Cl)=C(Cl)C2(Cl)C1(Cl)Cl (stereo not drawn) [Endosulfan (ind.), Endosulfan] | - | + | 0.1 | +^b | -
CCOC(=O)c1ccc(O)cc1 [Ethyl p-Hydroxybenzoate] | - | + | 30 | - | 
NC=O [Formamide] | - | + | 100 | - | 
O=C(O)CNCP(=O)(O)O [Glyphosate (ind.), Glyphosate] | - | - | 0.3 | - | 
C[C@]12CCC(=O)C=C1CC[C@@H]1[C@@H]2[C@@H](O)C[C@@]2(C)[C@H]1CC[C@]2(O)C(=O)CO [Hydrocortisone] | - | + | 0.1 | - | 
NC(=O)CI [Iodoacetamide] |  | - | 0.1 | + | 
[La+3] [Lanthanum(III)] | - | - | 5 | - | 
CC(C)C(C(=O)OC(C#N)c1cccc(Oc2ccccc2)c1)c1ccc(Cl)cc1 (stereo not drawn) [Sumicidin (ind.), Sumicidin] |  | -? | 0.5 | -? | 
CCN(CC)CC [Triethylamine] | - | - |  | - | 
NC(N)=O [Urea] | - | - |  | + | 
CCCCCC [n-Hexane] | - | - |  | - | 
c1cnc2c(c1)ccc1cccnc12 [o-Phenanthroline] | - | - |  | - | 
Oc1ccc(-c2ccccc2)cc1 [p-Hydroxybiphenyl] | - | -? |  | + | 
Cyanacrylate [Cyanacrylate (ind.)] | - | - |  | - | 
Lecithin [Lecithin, fresh] | - | - |  | - | 
Lecithin [Lecithin, oxidized] | + | - |  | + | 
Magnesium(II) | - | - |  | - | 
Triton X-100 | - | - |  | - | 
